Values quoted from earlier work in paper PMC10643470, “Knockout or inhibition of USP30 protects dopaminergic neurons in a Parkinson’s disease mouse model” (Nature Communications, 2023).

What was measured:
USP30 = conditions: cited from earlier work
[1] = test system: SHSY5Y neuroblastoma cells; design: method as in PMID 32636217; conditions: SHSY5Y neuroblastoma cells ref 42; cited from earlier work
[2] = test system: SHSY5Y neuroblastoma cells; design: method as in PMID 32636217; conditions: SHSY5Y neuroblastoma cells ref 42; cited from earlier work; remark: listed apart in the source

SMILES	USP30 inhibition in biochemical assays (USP30)	Ubiquitylation of TOM20 [1]	Mitophagy levels [2]
CC(C)(C)NS(=O)(=O)c1cccc2c(NC(=O)[C@H](Cc3ccccc3)NC(=O)C3CCCCC3)cccc12 [MF-094]	identified as USP30 inhibitors	–	–
CC(C)(C)NS(=O)(=O)c1cccc2c(NC(=O)[C@H](Cc3ccccc3)NC(=O)C3CC3)cccc12 [MF-095]	identified as USP30 inhibitors	–	–
N#CN1CC[C@@H](NC(=O)c2cc(-c3ccccc3Oc3ccccc3)n[nH]2)C1 [FT3967385]	–	significantly increases	significantly increases
